# According to article PMC12125351 (Communications Biology, 2025):
# No end group written: not given here.
# Tested on: P. aeruginosa (ATCC 27853)
# Format: cell-based
# Settings: broth microdilution in MHB, 37 °C, 16–20 h; triplicate, n = 3
sequence,measurement,value
LVQRGRFGRFLSRIRRIRPRINFNIKGSI [AMP-17],Experimentally measured MIC against P. aeruginosa (ATCC 27853),above 25 μM
